# In US7074888B1, “Mimotopes and anti-mimotopes of human platelet glycoprotein Ib/IX” (The Research Foundation of State University of New York, priority 1995, dated 2006):
# Ends that are not written are not given here.
# What was measured:
# [1] = tested on: platelets in citrated PRP; assay: Functional screening of candidate anti-mimotope bacteriophage clones, ristocetin-induced aggregation in citrated PRP; type: cell-based, human; conditions: 150 μL phage + 250 μL citrated PRP, 1 hr 22° C., 0.8 mg/mL ristocetin (FIG. 8)
# Procedure: FIG. 8 illustrates the functional screening of candidate anti-mimotope bacteriophage clones. Following incubation of 150 μL of the indicated bacteriophage clones with 250 μL of citrated PRP for 1 hr at 22° C., aggregation was initiated by the addition of 0.8 mg/mL ristocetin under stirring conditions at 37° C.;
# (§1) Citrated human platelet-rich plasma (PRP) was prepared by standard methods (Miller et al. 1983). For study of C-34 neutralization by mimotope peptide, 350 μL of PRP containing 150,000 platelets/μL was incubated for 10 min at 22° C. with phosphate-buffered saline (PBS), 20 μg/mL C-34 mab, or 20 μg/mL C-34 that had previously been incubated for 30 min at 22° C. with varying concentrations of peptides. The PRP was then brought to 37° C. and stirred at 1200 rpm in a Chrono-Log lumi-aggregometer (Chrono-Log Corporation, Havertown, Pa.). Aggregation was initiated by the addition of 1 mg/mL ristocetin (Helena Laboratories, Beaumont, Tex.). For screening of bacteriophage clones displaying potential anti-mimotope peptides, 150 μl of PEG/NaCl precipitated phage was incubated with 250 μl of citrated PRP for one hour at 22° C., transferred to the aggregometer, following which ristocetin was added at a final concentration of 0.8 mg/ml.
# The mimotope decapeptide itself was then used as a probe to search for “anti-mimotope” peptides. […]
# formalin-fixed platelets = type: cell-based, human
# Procedure: as §1
# Further studies were undertaken with chemically synthesized peptide having SEQ ID NO:94: […]. This decapeptide was able to inhibit ristocetin-induced aggregation fully, with an IC50 occurring between 200–400 μg/mL (FIG. 9). […] In order to approximate more closely the native structure, peptides with an (Arg→Lys) substitution at position 7 were then studied. […] Whereas the […] Finally, both the wild-type GPIb alpha 228–237 peptide (SEQ ID NO:108) containing Gly at residue 233 and the PT-vWD variant with Val replacing Gly at this position (SEQ ID NO:107) were synthesized. […] Lyophilized peptides were reconstituted in PBS, pH 6.0 and 150 μL of varying dilutions incubated for 2–4 hr at 22° C. with 250 μL of formalin-fixed platelets ([…]), prior to aggregometry in which the addition of 1 U/mL purified vWF was followed by the addition of 0.9 mg/mL ristocetin.
# mab SZ-2 = assay: ELISA: phage binding to biotinylated SZ-2 inhibits binding of SZ-2 to immobilized glycocalicin; conditions: phage clone
# Procedure: At this point, an ELISA assay can be used to evaluate individual clones, if the number of clones is high. In brief, phage having undergone two PEG precipitations, and subsequently adjusted for titer, can be incubated overnight with biotinylated mab, following which the mab-phage mixture can be added to wells of microtiter plates that have been previously coated with formalin-fixed platelets (or other suitable immobilized target recognized by the mab). Following a series of washing steps, avidin-peroxidase is added, the wells washed again, chromogenic substrate added, and the wells eventually read on an ELISA plate reader. The relative decrease in strength of signal in this assay provides guidance as to the most promising clones for further study. Consensus peptides identified in this manner can be chemically synthesized and characterized with respect to ability to bind original antibody. Peptides showing high binding affinity for the antibody can then be used as immunogens in mice and/or rabbits. […]
# [2] = target: human platelet glycoprotein Ib/IX complex (human, UniProt P07359 17-652; P13224 26-206; P14770 17-177); assay: cell-based or functional assay
# Sequence of human platelet glycoprotein Ib/IX complex (P07359 17-652, chain 1 of 3): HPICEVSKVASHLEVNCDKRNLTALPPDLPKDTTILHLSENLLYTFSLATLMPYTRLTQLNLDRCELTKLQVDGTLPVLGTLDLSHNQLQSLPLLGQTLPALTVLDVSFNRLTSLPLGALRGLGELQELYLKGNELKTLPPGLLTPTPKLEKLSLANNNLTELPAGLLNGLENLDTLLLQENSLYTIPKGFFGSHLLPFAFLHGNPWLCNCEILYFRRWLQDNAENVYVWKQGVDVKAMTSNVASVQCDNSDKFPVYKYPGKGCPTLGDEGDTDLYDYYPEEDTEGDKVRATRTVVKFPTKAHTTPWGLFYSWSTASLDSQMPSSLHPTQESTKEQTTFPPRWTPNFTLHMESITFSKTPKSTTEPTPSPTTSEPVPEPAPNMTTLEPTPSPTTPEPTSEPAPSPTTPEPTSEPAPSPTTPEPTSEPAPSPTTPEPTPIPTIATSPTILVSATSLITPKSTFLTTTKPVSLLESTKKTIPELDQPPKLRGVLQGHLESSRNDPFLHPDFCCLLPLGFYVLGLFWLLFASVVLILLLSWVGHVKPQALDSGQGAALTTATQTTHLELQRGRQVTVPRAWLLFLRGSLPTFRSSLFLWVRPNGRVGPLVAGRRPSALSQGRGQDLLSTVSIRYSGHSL
# Sequence of human platelet glycoprotein Ib/IX complex (P13224 26-206, chain 2 of 3): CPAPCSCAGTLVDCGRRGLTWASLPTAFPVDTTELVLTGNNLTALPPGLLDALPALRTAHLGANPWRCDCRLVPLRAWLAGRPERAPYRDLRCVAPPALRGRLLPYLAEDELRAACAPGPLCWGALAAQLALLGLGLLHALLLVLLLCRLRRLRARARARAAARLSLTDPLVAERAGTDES
# Sequence of human platelet glycoprotein Ib/IX complex (P14770 17-177, chain 3 of 3): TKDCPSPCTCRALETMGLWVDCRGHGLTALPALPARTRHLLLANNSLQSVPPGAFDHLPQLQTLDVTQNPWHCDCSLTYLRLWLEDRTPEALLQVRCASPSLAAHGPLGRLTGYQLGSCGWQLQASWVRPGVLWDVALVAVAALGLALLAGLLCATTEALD
molecule,measurement,setting,value
"RHVAWWRQGV [SEQ ID NO:94, RHVAWWRQGV]",inhibitory activity of bacteriophage clone in functional platelet assay,[1],inhibitory activity above background level
same,IC50 for inhibition of ristocetin-induced aggregation,formalin-fixed platelets,200 to 400 mg/L
same,"inhibition of ristocetin-induced aggregation (extent, in words)","formalin-fixed platelets; formalin-fixed platelets, 1 U/mL purified vWF, 0.9 mg/mL ristocetin",fully
WHWRSSWKSG [SEQ ID NO:83],neutralization of SZ-2 binding to immobilized glycocalicin,mab SZ-2,fully neutralizing
RHVAWWRQGV [chemically synthesized peptide having SEQ ID NO:94],IC50 of inhibition of ristocetin-induced aggregation of formalin-fixed platelets with vWF,[2],200 to 400 mg/L
